Read-outs that look alike come from different tables or passages of the source.
Legend:
[1] = tested on: protein extravasation induced by stimulation of the trigeminal ganglion; assay: Inhibition of neuronal protein extravasation in dura after electrical stimulation of trigeminal ganglion; type: in vivo, rat or guinea pig
[2] = tested on: cephalic vascular smooth muscle; details: literature; cited from earlier work
migraine = details: literature; cited from earlier work
[3] = literature; cited from earlier work
[4] = cited from earlier work
[5] = Rattus norvegicus, iv, read-out: Inhibition of Protein Extravasation, i.v. ID50

CNS(=O)(=O)Cc1ccc2[nH]cc(CCN(C)C)c2c1 [Compound I]
ED50 [1, 5]: 2.6e-05 µmol/kg
contraction of cephalic vascular smooth muscle [2]: contract cephalic vascular smooth muscle
efficacy in treatment of migraine (migraine): effective in the treatment of migraine
crossing of the blood-brain barrier [3]: does not cross the blood-brain barrier
side effects ([4]; due to affinity for a number of serotonin receptor subtypes): undesirable side effects, particularly vasoconstriction
bioavailability ([4]; in vivo): low bioavailability
duration of action ([4]; in vivo): relatively short duration of action

Oc1ccc2[nH]cc(C3CCNCC3)c2c1 [Compound III]
ED50 [1, 5]: 8.9e-06 µmol/kg

Cn1cc(CCN2CCC(c3c[nH]c4ccc(F)cc34)CC2)cn1 [Compound II]
ED50 ([1]; Rattus norvegicus, iv; read-out: Inhibition of Protein Extravasation, i.v. ID50): 8.6e-07 µmol/kg

CN(C)C1CCc2[nH]c3ccc(O)cc3c2C1 (centres unmarked) [Compound V]
ED50 [1, 5]: 8.7e-06 µmol/kg

CCN(CC)C1CCc2cccc(Cl)c2C1 (centres unmarked) [Compound IV]
ED50 [1, 5]: 0.00012 µmol/kg
